Assays:
Experiment in all cases: relative viability (nuclei count vs DMSO), 5 days (fraction); higher = more cells survive
RU-SKI 43 + Tozasertib = compound: CC[C@@H](C)CNCC(=O)N1CCC2=C([C@@H]1COC3=CC=CC(=C3)C)C=CS2 [RU-SKI 43] + Cc1cc(Nc2cc(N3CCN(C)CC3)nc(Sc3ccc(NC(=O)C4CC4)cc3)n2)n[nH]1 [Tozasertib] (partner 0.1 µM)
Summary of the method: (§1)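 Lung cancer cell lines in 1536-well plates got either a single drug or a fixed anchor-drug dose together with five library-drug doses (not always all listed) in √10 steps, by pin tool, on the day after seeding. Nuclei were counted after 5 days, and relative viability is the treated-to-vehicle ratio of nuclei counts. Values are medians of duplicate plates.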

Irinotecan + Trametinib = compound: CCc1c2c(nc3ccc(OC(=O)N4CCC(N5CCCCC5)CC4)cc13)-c1cc3c(c(=O)n1C2)COC(=O)[C@]3(O)CC [Irinotecan] + CC(=O)Nc1cccc(-n2c(=O)n(C3CC3)c(=O)c3c(Nc4ccc(I)cc4F)n(C)c(=O)c(C)c32)c1 [Trametinib] (partner 0.02 µM)
Summary of the method: as §1

Irinotecan + Pemetrexed = compound: CCc1c2c(nc3ccc(OC(=O)N4CCC(N5CCCCC5)CC4)cc13)-c1cc3c(c(=O)n1C2)COC(=O)[C@]3(O)CC [Irinotecan] + Nc1nc2[nH]cc(CCc3ccc(C(=O)N[C@@H](CCC(=O)O)C(=O)O)cc3)c2c(=O)[nH]1 [Pemetrexed] (partner 0.2 µM)
Summary of the method: as §1

MK-8033 + Dasatinib = compound: Cn1cc(-c2cnc3ccc4ccc(CS(=O)(=O)NCc5ccccn5)cc4c(=O)c3c2)cn1 [MK-8033] + Cc1nc(Nc2ncc(C(=O)Nc3c(C)cccc3Cl)s2)cc(N2CCN(CCO)CC2)n1 [Dasatinib] (partner 0.075 µM)
Summary of the method: as §1

Cell Line	relative viability (RU-SKI 43 + Tozasertib; first compound 0.1 µM)	relative viability (RU-SKI 43 + Tozasertib; first compound 0.3162 µM)	relative viability (RU-SKI 43 + Tozasertib; first compound 1 µM)	relative viability (RU-SKI 43 + Tozasertib; first compound 3.162 µM)	relative viability (RU-SKI 43 + Tozasertib; first compound 10 µM)	relative viability (Irinotecan + Trametinib; first compound 0.6325 µM)	relative viability (Irinotecan + Trametinib; first compound 2 µM)	relative viability (Irinotecan + Trametinib; first compound 6.325 µM)	relative viability (Irinotecan + Trametinib; first compound 20 µM)	relative viability (Irinotecan + Pemetrexed; first compound 0.6325 µM)	relative viability (Irinotecan + Pemetrexed; first compound 2 µM)	relative viability (Irinotecan + Pemetrexed; first compound 6.325 µM)	relative viability (Irinotecan + Pemetrexed; first compound 20 µM)	relative viability (MK-8033 + Dasatinib; first compound 0.02 µM)	relative viability (MK-8033 + Dasatinib; first compound 0.06325 µM)	relative viability (MK-8033 + Dasatinib; first compound 0.2 µM)	relative viability (MK-8033 + Dasatinib; first compound 0.6325 µM)	relative viability (MK-8033 + Dasatinib; first compound 2 µM)
NCI-H1944	0.251	0.27	0.257	0.251	0.23	0.291	0.204	0.177	0.178	0.553	0.516	0.284	0.175	0.205	0.201	0.221	0.202	0.234
NCI-H1975	0.755	0.852	0.854	0.712	0.574	0.224	0.341	0.292	0.224	0.268	0.311	0.252	0.173	0.329	0.344	0.357		0.343
NCI-H1993	0.566	0.569	0.585	0.588	0.564		0.5	0.527	0.517		0.637	0.545	0.506	0.482	0.493	0.533	0.468	0.502
NCI-H2009	0.725	0.896	0.727	0.64	0.504	0.282	0.34	0.213	0.0843	0.783	0.439	0.211	0.121	0.299	0.329	0.308	0.232	0.279
NCI-H2023	0.32	0.438	0.516	0.424	0.218	0.589	0.646	0.261	0.0947	0.256	0.2	0.156	0.0599	0.603	0.437	0.421	0.342	0.288
NCI-H2085	0.716	0.71	0.854	0.743	0.671	0.521	0.397	0.32	0.252	0.661	0.915	0.826	0.468	0.209	0.246	0.247	0.265	0.225
NCI-H2087	0.264	0.233	0.294	0.225	0.225	0.0883	0.151	0.137	0.196	0.489	0.197	0.172	0.195	0.95	0.852	0.754	0.763	0.772
NCI-H2126	0.817	0.917	0.962	0.854	0.74	0.546	0.347	0.273	0.304	0.414	0.606	0.456	0.383	0.601	0.556	0.597	0.601	0.573
NCI-H2170	0.701	0.953	0.751	0.722	0.701	0.798	0.309	0.119	0.111	0.277	0.245	0.238	0.151	0.681	0.553	0.604	0.581	0.481
NCI-H2228	0.256	0.264	0.184	0.249	0.255	0.279	0.611	0.402	0.437	0.363	0.36	0.336	0.442	0.586	0.517	0.471	0.446	0.482
NCI-H2342	0.489	0.528	0.502	0.441	0.516	0.872	0.89	0.786	0.494	0.452	0.807	0.845	0.461	0.329	0.277	0.35	0.33	0.352
NCI-H2347	0.448	0.449	0.523	0.535	0.501	0.271	0.382	0.351	0.415	0.429	0.427	0.342	0.427	0.288	0.317	0.314	0.362	0.354
NCI-H2405	0.73	0.705	0.713	0.701	0.629		0.734	0.358	0.179		1.12	0.315	0.256	0.185	0.202	0.228	0.213	0.21
NCI-H3122	0.372	0.416	0.495	0.392	0.369	0.192	0.146	0.111	0.108	0.205	0.202	0.139	0.14	0.734	0.655	0.586	0.814	0.876
PC-3 [JPC-3]	0.815	0.953	1.02	0.959	0.773	0.671	0.811	0.534	0.358	0.512	1.25	0.522	0.463	0.935	0.939	0.948	1.02	0.966
PC-14	0.635	0.522	0.7	0.554	0.471	0.744	0.436	0.164	0.137	0.155	0.175	0.136	0.111	0.254	0.181	0.246	0.232	0.245
RERF-LC-KJ	0.458	0.583	0.476	0.505	0.352	0.869	0.63	0.433	0.282	0.321	0.435	0.44	0.211	0.648	0.742	0.752	0.631	0.746
SK-LU-1	0.331	0.365	0.322	0.305	0.287	0.36	0.417	0.399	0.316	0.521	0.455	0.334	0.276	0.153	0.224	0.182	0.185	0.191
SK-MES-1	0.9	1.14	1.04	0.924	0.754	0.528	0.557	0.311	0.173	0.839	0.808	0.312	0.142	0.347	0.337	0.427	0.365	0.411
SW 900	0.671	0.553	0.54	0.45	0.512		0.522	0.275	0.284		0.538	0.36	0.406	0.378	0.394	0.476	0.907	0.424
SW 1573	0.209	0.22	0.204	0.123	0.196		0.432	0.138	0.0925		0.553	0.176	0.0829	0.444	0.508	0.502	0.424	0.466
